{
  "source": "patent US20050196385A1",
  "about": "“Methods for producing gamma delta t cells” (Innate Pharama, priority 2002, published 2005)",
  "test_system": "gamma 9 delta 2 T cells",
  "test": "TNF release test after BrHPP stimulation",
  "type": "cell-based, human",
  "conditions": "for TNF alpha production (pg/ml) on 25,000 cells: 3 μM BrHPP, 24 hours, day 21; for Pg/ml of alpha TNF produced by 25 000 cells: cells formulated in HSA 4%, triplicate means",
  "method": "Different tests were carried out on the cells obtained to evaluate their functional activity. In particular, said tests concerned the cytotoxic activity of the cells and their production of TNF. • Cytotoxicity test. For this test, the target cells were isotopically labelled with ^51Cr (10 μl of ^51Cr/1 million target cells in 24-well plates), then incubated for 1 hour at 37° C. The cells were distributed (in duplicate) at a rate of 3000 cells per well in RPMI/10% FCS (50 μl), and spontaneous and maximum release of ^51Cr were determined. Effector cells (gamma delta T cells of the invention) were then added (50 μl in RPMI/10% FCS) to each target, at the following effector/target (E/T) ratios: 30/1, 3/1, 0.3/1, and incubated for 3 to 4 hours at 37° C. Cytotoxic activity (lysis of target cells) was determined by measuring the released radioactivity on 25 μl of supernatant in a β plate counter. • TNF release test. Cells were washed twice in RPMI then cultured in 96-well plates in RPMI/10% FCS in the presence of 3 μM BrHPP for 24 hours. TNF was assayed in the supernatant using the Beckman Coulter Kit Immunotech, ref. IM 11121. IC—Results Choice of Medium\nThe formulated cell product was tested for functionality by the TNF release test at different time points to evaluate its stability.",
  "data": [
    {"smiles": "CC(O)(CBr)CCOP(=O)(O)OP(=O)(O)O", "note": "(stereo not shown) [BrHPP, 3-(bromomethyl)-3-butanol-1-yl-diphosphate]", "values": [
      {"measurement": "TNF alpha production (pg/ml) on 25,000 cells", "setting": "cells of donor D623 from fresh MNC", "result": 1332.7, "unit": "pg/mL"},
      {"measurement": "TNF alpha production (pg/ml) on 25,000 cells", "setting": "cells of donor D623 from frozen MNC", "result": 1442.36, "unit": "pg/mL"},
      {"measurement": "TNF alpha production (pg/ml) on 25,000 cells", "setting": "cells of donor D711 from fresh MNC", "result": 903.3, "unit": "pg/mL"},
      {"measurement": "TNF alpha production (pg/ml) on 25,000 cells", "setting": "cells of donor D711 from frozen MNC", "result": 1336.16, "unit": "pg/mL"},
      {"measurement": "TNF alpha production (pg/ml) on 25,000 cells", "setting": "cells of donor D762 from fresh MNC", "result": 782.08, "unit": "pg/mL"},
      {"measurement": "TNF alpha production (pg/ml) on 25,000 cells", "setting": "cells of donor D762 from frozen MNC", "result": 973.7, "unit": "pg/mL"},
      {"measurement": "Pg/ml of alpha TNF produced by 25 000 cells", "setting": "T = 2 h after formulation", "result": 381.358, "unit": "pg/mL"},
      {"measurement": "Pg/ml of alpha TNF produced by 25 000 cells", "setting": "T = 4 h after formulation", "result": 359.624, "unit": "pg/mL"},
      {"measurement": "Pg/ml of alpha TNF produced by 25 000 cells", "setting": "T = 8 h after formulation", "result": 327.31, "unit": "pg/mL"},
      {"measurement": "Pg/ml of alpha TNF produced by 25 000 cells", "setting": "T = 22 h after formulation", "result": 127.56, "unit": "pg/mL"}
    ]}
  ]
}
